Results reported in ChEMBL document CHEMBL1154660, “Synthesis of pyrrolo[2,3-d]pyrimidine derivatives and their antiproliferative activity against melanoma cell line” (Bioorg Med Chem Lett, 2009).

Assays:
HS27 = test: Antiproliferative activity against human HS27 cells after 24 hrs by MTT assay; type: cell-based; conditions: HS27, 24 h
[1] = Antiproliferative activity against human A375P cells after 24 hrs by MTT assay; type: functional, cell-based

| SMILES | IC50 (HS27) | IC50 [1] |
| --- | --- | --- |
| O=C(Nc1ccc(-n2ccc3c(NC(=O)c4ccccc4)ncnc32)cc1)Nc1ccc(Cl)c(C(F)(F)F)c1 | 6 µM | 4.6 µM |
| Nc1ncnc2c1ccn2-c1ccc(NC(=O)Nc2ccc(Cl)c(Cl)c2)cc1 | 2.9 µM | 5.4 µM |
| O=C(Nc1ccc(-n2ccc3c(NC(=O)c4ccccc4)ncnc32)cc1)c1cccc(C(F)(F)F)c1 | 5.9 µM | 4.7 µM |
| O=C(Nc1ccc(-n2ccc3c(NC(=O)c4ccccc4)ncnc32)cc1)c1ccc(Cl)c(Cl)c1 | 5 µM | 2 µM |
| CC(=O)Nc1ncnc2c1ccn2-c1ccc(NC(=O)Nc2ccc(Cl)c(C(F)(F)F)c2)cc1 | > 10 µM | > 10 µM |
| Cc1cn(-c2cc(C(=O)Nc3ccc(-n4ccc5c(NC(=O)c6ccccc6)ncnc54)cc3)cc(C(F)(F)F)c2)cn1 | 2.8 µM | 0.8 µM |
| CC(=O)Nc1ncnc2c1ccn2-c1ccc(NC(=O)c2ccc(Cl)c(C(F)(F)F)c2)cc1 | > 10 µM | > 10 µM |
| O=C(Nc1ccc(-n2ccc3c(NC(=O)c4ccccc4)ncnc32)cc1)c1ccc(N2CCOCC2)c(C(F)(F)F)c1 | 1.6 µM | 0.9 µM |
| O=C(Nc1ccc(-n2ccc3c(NC(=O)c4ccccc4)ncnc32)cc1)Nc1cc(C(F)(F)F)cc(C(F)(F)F)c1 | > 10 µM | 9.8 µM |
| Nc1ncnc2c1ccn2-c1ccc(NC(=O)Nc2cc(C(F)(F)F)cc(C(F)(F)F)c2)cc1 | 9.5 µM | 3 µM |
| O=C(Nc1ccc(-n2ccc3c(NC(=O)c4ccccc4)ncnc32)cc1)c1ccc(Cl)c(C(F)(F)F)c1 | 5.5 µM | 2.3 µM |
| Nc1ncnc2c1ccn2-c1ccc(NC(=O)c2ccc(Cl)c(C(F)(F)F)c2)cc1 | 5.6 µM | 2.9 µM |
| Nc1ncnc2c1ccn2-c1ccc(NC(=O)Nc2ccc(Cl)c(C(F)(F)F)c2)cc1 | > 10 µM | 8.1 µM |
| CNC(=O)c1cc(Oc2ccc(NC(=O)Nc3ccc(Cl)c(C(F)(F)F)c3)cc2)ccn1 [SORAFENIB] | – | 5.6 µM |
| O=C(Nc1ccc(-n2ccc3c(NC(=O)c4ccccc4)ncnc32)cc1)c1cc(C(F)(F)F)cc(C(F)(F)F)c1 | 6.6 µM | 2 µM |
| O=C(Nc1ccc(-n2ccc3c(NC(=O)c4ccccc4)ncnc32)cc1)Nc1cccc(Cl)c1Cl | 7.8 µM | 4.1 µM |
| O=C(Nc1ccc(-n2ccc3c(NC(=O)c4ccccc4)ncnc32)cc1)Nc1cccc(C(F)(F)F)c1 | 4.5 µM | 9.5 µM |
| Nc1ncnc2c1ccn2-c1ccc(NC(=O)c2cccc(C(F)(F)F)c2)cc1 | 7.1 µM | 9.7 µM |
| CC(=O)Nc1ncnc2c1ccn2-c1ccc(NC(=O)Nc2cccc(Cl)c2Cl)cc1 | > 10 µM | > 10 µM |
| O=C(Nc1ccc(-n2ccc3c(NC(=O)c4ccccc4)ncnc32)cc1)Nc1ccc(Cl)c(Cl)c1 | 4.5 µM | 4 µM |
